The target in assay [1] is T1, RORγt ligand-binding domain (RORγt-LBD) (Homo sapiens, UniProt P51449).
T1 construct: 20 nM recombinantly expressed RORγ-LBD fused to GST
T1 sequence (P51449 269-508 limits assumed): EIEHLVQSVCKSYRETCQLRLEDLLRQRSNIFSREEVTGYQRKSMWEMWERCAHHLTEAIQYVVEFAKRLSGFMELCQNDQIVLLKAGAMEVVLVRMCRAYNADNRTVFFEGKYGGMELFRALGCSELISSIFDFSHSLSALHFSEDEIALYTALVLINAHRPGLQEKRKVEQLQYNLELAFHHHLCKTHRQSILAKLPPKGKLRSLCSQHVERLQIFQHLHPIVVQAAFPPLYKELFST
In words: Time-resolved FRET (TR-FRET) RORγt coactivator assay. Particulars: GST-RORγ-LBD, biotinylated RIP140 peptide, 2 hours; read-out: IC50, coactivator-RORγt binding inhibition (TR-FRET). Format: biochemical. The source says:
Time-resolved FRET (TR-FRET) RORγt coactivator assay was used to identify RORγ modulator compounds with ligand-dependent coactivator displacement. The assay uses a d2-labeled anti-GST antibody, synthetic N-terminally biotinylated peptide which is derived from nuclear receptor coactivator protein RIP140, and a RORγt ligand-binding domain (RORγt-LBD) that is tagged with glutathione-S-transferase (GST). The influence of compounds on the RORγ-peptide interaction relies on the binding dependent energy transfer from a donor to an acceptor fluorophor attached to the binding partner of interest. […] For reduction of background from compound fluorescence, TR-FRET method makes use of generic fluorophore labels and time resolved detection.
The assays were done in a final volume of 20 μl in a 384 well plate in a CHAPS buffer (2 mM CHAPS; 1 mM DTT, 2 mM EDTA; 0.1% BSA), containing 20 nM recombinantly expressed RORγ-LBD fused to GST, 30 nM N-terminally biotinylated peptide, 1 nM streptavidin-terbium conjugate and 20 nM d2 labeled-anti-GST. Test compounds were diluted using 10 mM stock solution. The range of the final compound concentrations used in this test was from 0.3 nM to 30 μM (logarithmic scale). DMSO content of the samples was kept at 1%. The assay was equilibrated for 2 hours in the dark at room temperature in 384 well plates (Falcon). The signal was detected by an Ultra384 reader (TECAN). […] Compounds that promote coactivator displacement induce a concentration-dependent decrease in time-resolved fluorescent signal. Data were collected and analyzed using GraphPad Prism software (GraphPad Software V5.02, San Diego Calif. USA). IC50 in μM and Emax in % were reported for each compound.
(Time-resolved FRET reads energy transfer from a long-lived donor to a nearby acceptor.)

Assay [2] concerns the target T2, human RORγt (Homo sapiens, UniProt P51449).
T2 sequence (P51449 1-497 isoform P51449-2): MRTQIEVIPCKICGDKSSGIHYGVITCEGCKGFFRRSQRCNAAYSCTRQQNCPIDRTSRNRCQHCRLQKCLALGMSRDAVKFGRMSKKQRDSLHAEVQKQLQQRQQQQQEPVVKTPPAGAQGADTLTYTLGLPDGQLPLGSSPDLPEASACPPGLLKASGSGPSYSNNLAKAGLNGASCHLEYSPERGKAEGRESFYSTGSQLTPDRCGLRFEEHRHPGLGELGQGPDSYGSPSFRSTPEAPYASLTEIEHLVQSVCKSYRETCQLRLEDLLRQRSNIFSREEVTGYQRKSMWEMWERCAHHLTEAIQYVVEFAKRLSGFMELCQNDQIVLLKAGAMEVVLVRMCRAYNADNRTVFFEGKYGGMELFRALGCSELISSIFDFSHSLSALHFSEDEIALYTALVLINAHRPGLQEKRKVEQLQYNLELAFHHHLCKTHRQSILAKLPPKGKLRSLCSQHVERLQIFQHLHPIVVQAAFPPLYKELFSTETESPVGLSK
In words: IL-17 secretion from EL4 murine lymphoma cells overexpressing human RORγt. The class given is cell-based. Particulars: human RORγt-transfected EL4 cells, PMA and ionomycin stimulation; read-out: IC50, inhibition of IL-17 secretion. The procedure:
Murine EL-4 lymphoma cell line overexpressing human RORγt was used in this functional assay to assess compound ability to inhibit IL-17 cytokine secretion.
EL-4 cells are maintained in a standard culture medium RPMI supplemented with 10% fetal calf serum, 1% sodium pyruvate, 1% essential amino acids and 1% antibiotics at 37° C. in a humidified atmosphere of 5% CO02 and 95% air. Culture medium was changed every 2 days. EL4 cells were transfected with a plasmid encoding hRORγt (sequence identical to published sequence NM 001001523). […] Briefly, 1 μg of DNA/1 million cells was served to transfect EL-4 cells. Cell/DNA suspension was transferred into certified cuvette and the electroporation of RORγt plasmid was carried out using appropriate Nucleofector® program.
Cells were seeded in 96 well plates at a density of 150000 cells/I well then treated with compounds of this invention at indicated concentrations and incubated for 24 hours at 37° C. in a humidified atmosphere of 5% CO2 and 95% air. EL-4 cells were pretreated with test compounds (RORγ modulators) and stimulated with PMA (10 ng/mL) and ionomycin (1 μM final concentration) in the presence of test compound concentrations for additional 24 h at 37° C. in a humidified atmosphere of 5% CO2 and 95% air. Subsequently, supernatants were collected (after centrifugation at 300 g for 10 minutes) to determine the concentrations of IL-17 by HTRF (CisBio, France) or ELISA (R&D Systems Europe) according to the manufacturer's protocols.

The target of assay [3] is T2, human RORγt. In words: RORE Luciferase/RORγt transactivation assay. Format: cell-based. As to conditions: COS-7 cells transfected with human IL-17 promoter luciferase reporter and RORγt plasmid, 20 h; read-out: IC50, RORγt activity inhibition (luciferase reporter). Details: the full-length cDNA of human RORγt; V5-His (encoded by the vector); expressed in transfected cells; host or cells: COS-7 (monkey kidney). The procedure:
It is well known that RORγ binds to a conserved non-coding sequence (CNS) enhancer element in the IL-17 promoter.
Culture medium was changed every 2 days.
The 4.3 Kb human IL-17 promoter containing the RORγ-specific CNS enhancer element was PCR amplified from human genomic DNA and cloned into a pGL3-TKLuc2Cp reporter plasmid.
The luciferase reporter plasmid and the RORγt overexpression plasmid were transfected into COS-7 cell line using 4 μLJetPEI™/μg of DNA. Briefly, 150 ng of DNA (ration 1/2 between RORE-Tk Luc2Cp and cDNA RORγt or the empty vector for the negative control) was served to transfect adherent COS-7 cells in a […] culture flask, in complete medium (see cos-7 cell line culture).
Cells were then detached (using trypsin) and washed by centrifugation at 300 g for 10 minutes. Cell pellet was resuspended in serum free/phenol red free DMEM and seeded in 384 well plates at a density of 10000 cells/well and then incubated for 4 h at 37° C.
Compounds were dissolved in 100% DMSO to obtain 10 mM stock solutions. For each compound, test concentrations were diluted in serum free/phenol red free DMEM using the Genesis Freedom 200™ (TECAN) and added to the cells to obtain a 0.3% DMSO final concentration (in a final volume of 40 μL per well).
The luciferase activity was then measured with 40 μL/well steady-Glo Luciferase assay system (Promega, Madison, Wis.) and after incubation at room temperature for 30 minutes. The luminescence was estimated using the Ultra384 reader (TECAN). Data were collected and analyzed using GraphPad Prism software (GraphPad Software V5.02, San Diego Calif. USA). IC50 in μM and Emax in % were reported for each compound.
For orientation: A reporter such as luciferase makes a cellular process visible.

Assay [4] concerns patients with moderate to severe psoriasis. As to conditions: cited from earlier work.

Where only a bound is given, the exact number is not on record here.

The IC50 is the concentration that inhibits the measured activity by half.

As for `CC(=O)N1CCN(c2ccc(C)c(CC(=O)NC(c3ccccc3)c3ccc(C)cc3N3CCCC3)c2)CC1` (centres unmarked) [Cpd.3, 2-[5-(4-acetylpiperazin-1-yl)-2-methylphenyl]-N-{[4-methyl-2-(pyrrolidin-1-yl)phenyl](phenyl)methyl}acetamide], the 50% inhibitory concentration (IC50) in assay [1] is less than 0.1 µM; on human RORγt [2], 0.1 to 1 µM; on human RORγt [3] it was less than 0.1 µM.

`CC(=O)N1CCN(c2ccc(F)c(CC(=O)NC(c3ccc(C)o3)c3ccc(C)cc3C)c2)CC1` (centres unmarked) [Cpd.12, 2-[5-(4-acetylpiperazin-1-yl)-2-fluorophenyl]-N-[(2,4-dimethylphenyl)(5-methylfuran-2-yl)methyl]acetamide]: the IC50 in assay [1] was less than 0.1 µM; at human RORγt [2], 1 to 10 µM; on human RORγt [3] it was 0.1 to 1 µM.

For the compound `Cc1ccc(C(NC(=O)Cc2ccc(N3CCC(S(C)(=O)=O)CC3)cc2)c2ccc(C)o2)c(N2CCCCC2)c1` (centres unmarked) [Cpd.18, 2-[4-(4-methanesulfonylpiperidin-1-yl)phenyl]-N-{[4-methyl-2-(piperidin-1-yl)phenyl](5-methylfuran-2-yl)methyl}acetamide], the 50% inhibitory concentration (IC50) in assay [1] was less than 0.1 µM; on human RORγt [2], 0.1 to 1 µM; at human RORγt [3] it was less than 0.1 µM.

On to `COc1ccc(C(NC(=O)Cc2cc(N3CCN(C(C)=O)CC3)ccc2C)c2ccc(C)o2)c(N2CCCCCC2)c1` (centres unmarked) [Cpd.11, 2-[5-(4-acetylpiperazin-1-yl)-2-methylphenyl]-N-{[2-(azepan-1-yl)-4-methoxyphenyl](5-methylfuran-2-yl)methyl}acetamide], for which the concentration for half-maximal inhibition (IC50) was less than 0.1 µM in assay [1], 0.1 to 1 µM at human RORγt [2] and 0.1 to 1 µM on human RORγt [3].

`Cc1ccc(C(NC(=O)Cc2cc(N3CCN(S(C)(=O)=O)CC3)ccc2F)c2ccc(C)o2)c(N2CCCCC2)c1` (centres unmarked) [Cpd.16, 2-[2-fluoro-5-(4-methanesulfonylpiperazin-1-yl)phenyl]-N-{[4-methyl-2-(piperidin-1-yl)phenyl](5-methylfuran-2-yl)methyl}acetamide]: the half-maximal inhibitory concentration (IC50) in assay [1] is less than 0.1 µM; on human RORγt [2] it was 0.1 to 1 µM; at human RORγt [3], 0.1 to 1 µM.

As to `CCS(=O)(=O)c1ccc(CNC(=O)c2cnc3c(c2)CN(C[C@H]2CC[C@H](C(F)(F)F)CC2)[C@H]3C(C)C)nc1` [VTP-43742], the “reduction in the Psoriasis Area Severity Index (PASI) score relative to placebo” value in assay [4] (350 mg dose group) is on record as 24%. Also, the “placebo-adjusted PASI score reduction” value in assay [4] (700 mg dose group) is recorded as 30%.

`CC(=O)N1CCN(c2cccc(CC(=O)NC(c3ccc(C)o3)c3ccc(C)cc3N3CCCCC3)c2)CC1` (centres unmarked) [Cpd.20, 2-[3-(4-acetylpiperazin-1-yl)phenyl]-N-{[4-methyl-2-(piperidin-1-yl)phenyl](5-methylfuran-2-yl)methyl}acetamide]: the IC50 (in assay [1]; on human RORγt [2]; at human RORγt [3]) was less than 0.1 µM each time.

On to `CC(=O)C1CCN(c2ccc(CC(=O)NC(c3ccc(C)o3)c3ccc(C)cc3N3CCCCC3)cc2)CC1` (centres unmarked) [Cpd.19, 2-[4-(4-acetylpiperidin-1-yl)phenyl]-N-{[4-methyl-2-(piperidin-1-yl)phenyl](5-methylfuran-2-yl)methyl}acetamide], for which the values for the half-inhibitory concentration (IC50) (in assay [1]; on human RORγt [2]; at human RORγt [3]) were less than 0.1 µM, 0.1 to 1 µM and less than 0.1 µM, respectively.

Consider `CC(=O)N1CCN(c2ccc(CC(=O)NC(c3ccccc3)c3ccccc3N3CCCCC3)cc2)CC1` (centres unmarked) [Cpd.1, 2-[4-(4-acetylpiperazin-1-yl)phenyl]-N-{phenyl[2-(piperidin-1-yl)phenyl]methyl}acetamide], for which the IC50 in assay [1] is less than 0.1 µM; at human RORγt [2], 0.1 to 1 µM; on human RORγt [3], 0.1 to 1 µM.

As to `CC(=O)N1CCN(c2ccc(C)c(CC(=O)NC(c3ccc(C)o3)c3ccc(C)cc3N3CCCCC3)c2)CC1` (centres unmarked) [Cpd.10, 2-[5-(4-acetylpiperazin-1-yl)-2-methylphenyl]-N-{[4-methyl-2-(piperidin-1-yl)phenyl](5-methylfuran-2-yl)methyl}acetamide], the IC50 (in assay [1]; on human RORγt [2]; on human RORγt [3]) was less than 0.1 µM in each case.

For the compound `COc1ccc(C(NC(=O)Cc2cc(N3CCN(C(C)=O)CC3)ccc2F)c2ccccc2)c(N2CCCCCC2)c1` (centres unmarked) [Cpd.17, 2-[5-(4-acetylpiperazin-1-yl)-2-fluorophenyl]-N-{[2-(azepan-1-yl)-4-methoxyphenyl](phenyl)methyl}acetamide], the IC50 is less than 0.1 µM in assay [1], 0.1 to 1 µM at human RORγt [2] and 0.1 to 1 µM on human RORγt [3].

Take `COc1ccc(C(NC(=O)Cc2cc(N3CCN(C(C)=O)CC3)ccc2F)c2ccc(C)o2)c(N2CCCCCC2)c1` (centres unmarked) [Cpd.14, 2-[5-(4-acetylpiperazin-1-yl)-2-fluorophenyl]-N-{[2-(azepan-1-yl)-4-methoxyphenyl](5-methylfuran-2-yl)methyl}acetamide]: the half-inhibitory concentration (IC50) was less than 0.1 µM in assay [1], 0.1 to 1 µM on human RORγt [2] and 0.1 to 1 µM at human RORγt [3].

Values taken from patent US10987351B2, “RORgamma modulators and uses thereof” (Genfit, priority 2017, dated 2021).
